The values below come from US6271238A, “Acetamide derivatives and protease inhibitors” (Nippon Kayaku Kabushiki Kaisha, priority 1996, dated 2001).

The subject of one assay is guinea pig eosinophils. The experiment in a line: Inhibitory action on eosinophils (release of active oxygen from guinea pig eosinophils). The assay is classed as cell-based. The following applies: Cavia porcellus, Eosinophil, 5 min, PAF, luminol chemiluminescence for 5 minutes. As for the experimental part:
Inhibitory activity on eosinophil activation
(A) Preparation of eosinophils
Polymyxin B (produced by Sigma) was administered intraperitoneally into a guinea pig (Hartley, male, 6-week-old) at a dosage of 1 mg once every week for 6 to 8 weeks. After the final administration of polymyxin B. 50 ml of PBS (phosphate-buffered saline) was injected into the intraperitoneal cavity of the guinea pig, and cells were recovered. The cells were centrifuged at 800 rpm for 5 minutes and the abdomen infiltration cells were collected as precipitates and then suspended in 1 ml of 40% Ficoll (40% Ficoll (produced by Pharmacia), HBSS (Hanks' balanced salt solution) and layered on a Ficoll discontinuous density gradient (40 to 90%). It was centrifuged at 1500 rpm for 40 minutes, and the eosinophil fraction was recovered. In this operation, eosinophils of 99% or more purity were usually obtained. Further, the cells were washed twice with RPMI 1640 medium (10% BSA (bovine serum albumin available from Boehringer Mannheim), suspended again at a predetermined density, and used in the objective experiment.
(B) Inhibitory action on eosinophils (inhibitory action on release of active oxygen from guinea pig eosinophils)
The eosinophils (99% or more purity) obtained by the Ficoll density gradient method in (A) above were suspended at a cell density of 4×10^5 in a buffer solution (0.136 M sodium chloride, 2.7 mM potassium chloride, 1.8 mM calcium chloride, 1.0 mM magnesium chloride, 11.9 mM sodium hydrogen carbonate, 5.5 mM D-glucose, 5.0 mM HEPES, 0.36 mM sodium dihydrogen phosphate, pH 7.2). Each drug (2 μl) and 180 μl of the cell suspension were put to a 96-well multi-well plate (for chemiluminescence measurement, white type) previously kept at 37° C., and incubated at 37° C. for 10 minutes. After incubation, 20 μl of PAF (platelet-activating factor) (5×10^-6 M) and 20 μl of a luminol solution were added to it and immediately examined for its chemiluminescence (Luminoskan Labosystem). The chemiluminescence for 5 minutes were measured to calculate 50% inhibitory concentration (IC50: μM).

In a further assay the target is T1, rat chymase (Rattus norvegicus, UniProt P09650).
T1 construct: 50 g rat tongue was finely divided by scissors and a scalpel; from tissue; host or cells: rat tongue
T1 sequence (P09650 21-260): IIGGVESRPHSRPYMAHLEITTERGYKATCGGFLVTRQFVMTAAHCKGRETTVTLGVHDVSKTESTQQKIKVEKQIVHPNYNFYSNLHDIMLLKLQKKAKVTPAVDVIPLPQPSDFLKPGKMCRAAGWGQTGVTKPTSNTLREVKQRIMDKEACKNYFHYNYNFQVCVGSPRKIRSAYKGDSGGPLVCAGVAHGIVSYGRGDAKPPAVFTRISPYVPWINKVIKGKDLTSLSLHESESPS
The assay can be described thus: Inhibitory activity on rat chymase (synthetic substrate). The following applies: substrate succinyl leucyl leucyl valyl tyrosyl methylcoumarylamide; pH 8.0, 37° C., 15 min; read-out: Rat Chymase (IC50: nM), 50% inhibitory concentration. Format: biochemical. As for the experimental part: In the present invention, chymase was purified by the methods described in these literatures, and the present compounds were examined for inhibitory activity on chymase, inhibitory action on activation of mast cells and eosinophils, and pharmacological action in animals. Hereinafter, specific methods are described. […] 50 g rat tongue was finely divided by scissors and a scalpel, suspended in 0.1 M phosphate buffer (pH 8.0), and disrupted by a Polytron homogenizer for 5 minutes to prepare a crude chymase enzyme solution. […] The supernatant was applied to an octyl Sepharose 4B column (40×100 mm) previously equilibrated with 0.1 M phosphate buffer (pH 8.0) containing 2 M sodium chloride and 5% ammonium sulfate, and the protein was eluted with a linear concentration gradient of from 2 M to 0 M sodium chloride. […] (D) Measurement of inhibitory activity on chymase (a) Measurement using the synthetic substrate The synthetic chymase substrate was used for measurement of the inhibitory activity on the rat chymase as a subtrate, and the fluorescence of formed aminomethylcoumarin after reaction was measured by a spectrophotometer. […] The test was conducted several times. Chymase was prepared for each test in the manner described above. The compounds examined were compounds prepared in the above-described examples. […] Succinyl leucyl leucyl valyl tyrosyl methylcoumarylamide (for rat […] angiotensin I (for human and dog chymase)

For another assay, the system named is rat mast cells. The assay can be described thus: Inhibitory action on degranulation of mast cells (histamine release from rat mast cells). Format: cell-based. The conditions noted are these: Mast cell; rat peritoneal mast cells, anti-IgE antibody, 37° C. As for the experimental part: Inhibitory action on degranulation of mast cells
(A) Preparation of mast cells
30 ml of mast cell buffer solution (150 mM sodium chloride, 3.7 mM potassium chloride, 3.0 mM disodium hydrogen phosphate, 3.5 mM sodium dihydrogen phosphate, 5.6 mM dextrose, pH 7.0) was injected into the abdomen of a rat(SD, male, 8 to 10 week-old), and intra peritoneal cavity cells were recovered and centrifuged at 800 rpm for 5 minutes, and then the abdomen infiltration cells were recovered as precipitates. The precipitated cells were further washed twice with the mast cell buffer solution, suspended again at a predetermined density, and used in the objective experiment.
(B) Inhibitory action on degranulation of mast cells (inhibitory action on histamine release from rat mast cells)
The mast cells obtained in the procedure in (A) above were suspended at 1×10^5 cells in the mast cell buffer solution and kept at 37° C. 2 μl of each drug and 200 μl of the cell suspension were added into a 1.5 ml test tube previously kept at 37° C. and incubated at 37° C. for 10 minutes. After incubation, 2 μl anti-IgE antibody (BETHYL Lab. Inc.) was added to it and further incubated at 37° C. for 15 minutes. After the end of the reaction, the reaction mixture was immediately cooled on ice and centrifuged at 4° C. at 4000 rpm for 5 minutes, and then the supernatant was stored. Histamine in the supernatant was modified with ortho-phthalaldehyde and measured by high performance liquid chromatography to determine 50% inhibitory concentration (IC50: μM).

In a further assay the target is T2, human chymase (Homo sapiens, UniProt P23946).
T2 construct: 60 g human tonsils were finely divided by scissors and a scalpel; from tissue; host or cells: human tonsils
T2 sequence (P23946 22-247): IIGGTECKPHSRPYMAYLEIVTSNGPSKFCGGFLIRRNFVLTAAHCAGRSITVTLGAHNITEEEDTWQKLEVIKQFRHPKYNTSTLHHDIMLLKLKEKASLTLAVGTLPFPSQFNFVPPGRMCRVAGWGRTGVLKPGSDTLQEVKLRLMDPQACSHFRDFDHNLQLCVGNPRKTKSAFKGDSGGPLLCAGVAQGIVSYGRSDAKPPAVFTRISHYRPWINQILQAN
The assay can be described thus: Inhibitory activity on human chymase (angiotensin I as substrate). The assay is classed as biochemical. From the text: It is known that chymase is present in tissues of various animals, and its isolation and purification methods are described in Anal. Biochem., 137, 449 (1984) and FEBS Letters, 323, 119 (1993). In the present invention, chymase was purified by the methods described in these literatures, and the present compounds were examined for inhibitory activity on chymase, inhibitory action on activation of mast cells and eosinophils, and pharmacological action in animals. Hereinafter, specific methods are described. 50 g rat tongue was finely divided by scissors and a scalpel, suspended in 0.1 M phosphate buffer (pH 8.0), and disrupted by a Polytron homogenizer for 5 minutes to prepare a crude chymase enzyme solution. […] The supernatant was applied to an octyl Sepharose 4B column (40×100 mm) previously equilibrated with 0.1 M phosphate buffer (pH 8.0) containing 2 M sodium chloride and 5% ammonium sulfate, and the protein was eluted with a linear concentration gradient of from 2 M to 0 M sodium chloride. An active fraction decomposing succinyl leucyl leucyl valyl tyrosyl methylcumarylamide (hereinafter referred to as the synthetic chymase substrate, a product of Peptide Kenkyusho) was recovered and concentrated and this product was used as a purified rat chymase in the following activity measurement. (B) Preparation of human chymase 60 g human tonsils were finely divided by scissors and a scalpel, suspended in 0.1 M phosphate buffer (pH 8.0), and A-disrupted by a Polytron homogenizer for 5 minutes to prepare a crude chymase enzyme solution. It was centrifuged at 22000×g for 30 minutes, and the precipitates were used as a chymase enzyme fraction. […] The supernatant was concentrated by an ultrafiltration membrane, then applied to […] column (6.0×300 mm), and eluted with 0.1 M phosphate buffer (pH 8.0). An active fraction decomposing the synthetic chymase substrate was recovered and concentrated and this product was used as a purified human chymase in the following activity measurement. (D) Measurement of inhibitory activity on chymase (b) Measurement using angiotensin I as substrate The inhibitory activity on the human chymase and dog chymase was measured using angiotensin I (Peptide Kenkyusho) as substrate besides the above synthetic substrate. […] After the end of the reaction, produced angiotensin II was immediately measured by high performance liquid chromatography to determine the activity of the chymase to calculate 50% inhibitory concentration (IC50: nM). The test was conducted several times. Chymase was prepared for each test in the manner described above. The compounds examined were compounds prepared in the above-described examples. […] 50% Inhibitory concentration (IC50: nM) of each compound toward rat chymase, dog […] human […] Substrate: Succinyl leucyl leucyl valyl tyrosyl methylcoumarylamide (for rat […] angiotensin I (for human and dog chymase)

The next assay has as its system other human proteases. The assay can be described thus: Inhibitory activity on other human proteases (summary). The assay is classed as biochemical. As for the experimental part:
(E) Measurement of inhibitory activity on proteases other than chymase
The inhibitory activity of the present compounds on human elastase, human cathepsin G, human urokinase, human thrombin, human plasmin, and human factor Xa was determined using their corresponding synthetic substrates in the same manner as for chymase. All the above proteases were those commercially available from Boehringer Mannheim or purified by a combination of known methods. The synthetic substrates were those produced by Peptide Renkyusho. The synthetic substrates for the respective proteases are as follows.
The test was conducted several times. Chymase was prepared for each test in the manner described above. The compounds examined were compounds prepared in the above-described examples.

The target of a further assay is T3, dog chymase (Canis lupus familiaris, UniProt P21842).
T3 construct: 60 g dog heart was finely divided by scissors and a scalpel; from tissue; host or cells: dog heart
T3 sequence (P21842 22-249): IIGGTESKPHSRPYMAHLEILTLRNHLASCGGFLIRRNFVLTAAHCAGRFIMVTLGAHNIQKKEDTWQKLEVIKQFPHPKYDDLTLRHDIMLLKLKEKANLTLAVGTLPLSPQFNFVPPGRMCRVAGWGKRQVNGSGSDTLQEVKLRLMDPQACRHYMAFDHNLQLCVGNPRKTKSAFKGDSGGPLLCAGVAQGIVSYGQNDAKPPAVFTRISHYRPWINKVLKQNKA
The experiment in a line: Inhibitory activity on dog chymase (angiotensin I as substrate). The following applies: pH 8.0, 37° C., 60 min, read-out: Dog Chymase (IC50: nM), 50% inhibitory concentration. The assay is classed as biochemical. From the text: It is known that chymase is present in tissues of various animals, and its isolation and purification methods are described in Anal. Biochem., 137, 449 (1984) and FEBS Letters, 323, 119 (1993). In the present invention, chymase was purified by the methods described in these literatures, and the present compounds were examined for inhibitory activity on chymase, inhibitory action on activation of mast cells and eosinophils, and pharmacological action in animals. Hereinafter, specific methods are described. (c) Preparation of dog chymase 60 g dog heart was finely divided by scissors and a scalpel, suspended in 0.1 M phosphate buffer (pH 8.0), and disrupted by a Polytron homogenizer for 5 minutes to prepare a crude chymase enzyme solution. It was centrifuged at 22000×g for 15 minutes, and the precipitates were used as a chymase enzyme fraction. […] An active fraction decomposing the synthetic chymase substrate was recovered and concentrated and this product was used as a purified dog chymase in the following activity measurement. (D) Measurement of inhibitory activity on chymase (b) Measurement using angiotensin I as substrate The inhibitory activity on the human chymase and dog chymase was measured using angiotensin I (Peptide Kenkyusho) as substrate besides the above synthetic substrate. […] After the end of the reaction, produced angiotensin II was immediately measured by high performance liquid chromatography to determine the activity of the chymase to calculate 50% inhibitory concentration (IC50: nM). The test was conducted several times. Chymase was prepared for each test in the manner described above. The compounds examined were compounds prepared in the above-described examples. […] 50% Inhibitory concentration (IC50: nM) of each compound toward rat chymase, dog […] human […] Substrate: Succinyl leucyl leucyl valyl tyrosyl methylcoumarylamide (for rat […] angiotensin I (for human and dog chymase)

For `CN1CCN(C(=O)CCCC(=O)C(=O)C(Cc2cccc(F)c2)NC(=O)Cn2c(-c3ccccc3)ncc(N)c2=O)CC1` (stereo not drawn) [Compound 69], the IC50 was 2.5 µM with guinea pig eosinophils and 54 nM on rat chymase.

As for `Nc1cnc(-c2ccccc2)n(CC(=O)NC(Cc2ccccc2)C(=O)C(=O)CCCN2CCOCC2)c1=O` (stereo not drawn) [Compound 71, 2-(5-Amino-6-oxo-2-phenyl-1,6-dihydropyrimidine-1-yl)-N-{2,3-dioxo-6-(4-morpholine-4-yl)-1-phenylmethyl}hexylacetamide], the IC50 with rat mast cells was determined as 13 µM; in the assay with guinea pig eosinophils, 2.6 µM.

Consider `O=C(Cn1c(-c2ccccc2)ncc(NC(=O)OCc2ccncc2)c1=O)NC(Cc1ccccc1)C(=O)C(=O)CCCOc1ccccn1` (stereo not drawn) [Compound 78, 2-{6-oxo-2-phenyl-5-(4-pyridylmethyloxycarbonylamino)-1,6-dihydropyrimidine-1-yl}-N-{2,3-dioxo-1-phenylmethyl-6-(2-pyridyloxy)}hexylacetamide], for which the “inhibitory activity on human chymase, in words” value against human chymase is reported as “strong inhibitory activity on human chymase”. For the same compound, the IC50 on human chymase (substrate angiotensin I, pH 8.0, 37° C., 60 min, read-out: Human Chymase (IC50: nM), 50% inhibitory concentration) was found to be 1.6 nM; at dog chymase, 0.32 nM; on rat chymase, 42 nM. Moreover, the “inhibitory activity on other human proteases, in words” value in the assay on other human proteases is listed as “no inhibitory activity on other human proteases”.
